From patent publication US20160115540A1, “PRODRUGS AND DRUGS” (Biogen MA Inc., priority 2013, published 2016)
Counter-ions that a name gives are not always drawn.

Test system: jejunum
Assay: Transcriptional profiling on Affymetrix GeneChips, single dose, naïve mice: jejunum
Assay type: in vivo, C57BL/6 mice
Protocol: Treated mice were sacrificed at 2, 7, or 12 hours. Tissues (liver, spleen, kidney, jejunum, cortex, hippocampus, striatum and whole blood) were collected and analyzed by transcriptional profiling on mouse Affymetrix GeneChips.
Tissues (liver, spleen, kidney, jejunum, cortex, hippocampus, striatum and whole blood) were collected and analyzed by transcriptional profiling on mouse Affymetrix GeneChips.
Animals were exposed to CO2 and whole blood collected via cardiac puncture. Two 100 μl aliquots of whole blood were collected in 1.5 mL microcentrifuge tubes and snap frozen in liquid nitrogen. Peripheral (liver, spleen, kidney and jejunum) and CNS brain (cerebellum, hippocampus, striatum and cortex) tissues were harvested and snap frozen in liquid nitrogen, with special care taken to collect tissues of similar size and from the same location. All samples were stored at −80° C. until RNA extraction was conducted.
For RNA preparation, frozen tissues were placed in 2 mL RNAse-free 96-well blocks with 1.5 mL QIAzol Lysis Reagent (QIAgen) and a 3.2 mm stainless steel bead (BioSpec Products, Bartlesville, Okla.). Tissues were disrupted for four cycles of 45 seconds in a Mini-Beadbeater (Biospec Products). RNA was extracted in chloroform and the aqueous phase was mixed with an equal volume of 70% ethanol. Extracted RNA was applied to RNeasy 96 plates and purified by the spin method according to the manufacturer's protocol (RNeasy 96 Universal Tissue Protocol, QIAgen, Hilden Germany).
Automated sample amplifications and biotin labelings were carried out using the NuGEN Ovation RNA Amplification system V2 (Cat #3100), Ovation WB reagent (Cat #1300) and Encore Biotin module (Cat #4200) (NuGEN Technologies, Inc, San Carlos, Calif.) according to manufacturer's recommendations using an Arrayplex automated liquid handler (Beckman Coulter, Indianapolis, Ind.). Two micrograms of biotin labeled sscDNA probe were hybridized to Affymetrix GeneChip Affymetrix HT_MG-430_PM plate arrays with modified conditions as described in Allaire et al. Washing and staining of the hybridized arrays were completed as described in the GeneChip Expression analysis technical manual for HT plate arrays using the Genechip® Array Station (Affymetrix, Santa Clara, Calif.) with modifications as described in Allaire et al. The processed GeneChip® plate arrays were scanned using GeneTitan scanner (Affymetrix, Santa Clara, Calif.).
Affymetrix scans were subject to quality control (QC) measures. These tests included a visual inspection of the distribution of raw signal intensities and an assessment of RNA degradation, relative log expression (RLE), and normalized unsealed standard error (NUSE). All sample scans that passed these QC metrics were included in the analysis.
All CEL files were subjected to GC-content-based Robust Multi-array Average (GCRMA) normalization (version 2.20.0) (Irizarry R A, et al. Nucleic Acids Res 2003; 31:e15; Li C, et al. Genome Biol 2001; 2:[…]0032). Expression levels were log (base 2) transformed.
All calculations and analyses were carried out using R (version 2.11.1) and Bioconductor computational tools (Gentleman R. Springer Science+Business Media 2005).

[1] = 100DMF-vs-Veh or 100MMF-vs-Veh, 12 h

## COC(=O)/C=C/C(=O)O [MMF, monomethyl fumarate]
[1]
  FC Abcc3 (1428988_PM_at): 2.10
  FC Acsm5 (1437662_PM_at): 1.95
  FC Akr1b8 (1448894_PM_at): 18.78
  FC Akr1c12 (1450455_PM_s_at): 1.76
  FC Akr1c19 (1455454_PM_at): 3.53
  FC Blvrb (1451386_PM_at): 1.54
  FC Cbr3 (1427912_PM_at): 32.24
  FC Ces1e (1419510_PM_at): 2.77
  FC Ces1f (1424266_PM_s_at): 6.54
  FC Ces1g (1449486_PM_at): 9.45
  FC G6pd2 (1422327_PM_s_at): 1.83
  FC Gpx2 (1449279_PM_at): 1.54
  FC Gsr (1421816_PM_at): 2.67
  FC Gss (1441931_PM_x_at): 1.55
  FC Gsta2 (1421040_PM_a_at): 6.66
  FC Gsta2 (1421041_PM_s_at): 2.09
  FC Gsta3 (1423436_PM_at): 10.80
  FC Gsta3 (1423437_PM_at): 7.97
  FC Gstm1 (1425627_PM_x_at): 4.61
  FC Gstm1 (1448330_PM_at): 4.27
  FC Gstm3 (1427473_PM_at): 2.14
  FC Gstm3 (1427474_PM_s_at): 1.58
  FC Gstm4 (1424835_PM_at): 5.43
  FC Gstm6 (1422072_PM_a_at): 2.19
  FC Nqo1 (1423627_PM_at): 2.34
  FC Pir (1429001_PM_at): 4.19
  FC Setd4 (1425239_PM_at): 1.60
  FC Setd4 (1460373_PM_a_at): 1.56
  FC Slc5a4b (1422757_PM_at): 2.16
  FC Ugt2b5 (1419622_PM_at): 5.00
  FC Ugt2b35 (1439624_PM_at): 2.45
  FC Ugt2b36 (1455595_PM_at): 3.03
100MMF-vs-Veh, 2 h
  FC 6-Sep (1424181_PM_at): 1.56
  FC 1443118_PM_at: 1.69
  FC 1444265_PM_at: 1.93
  FC 1445980_PM_at: 2.43
  FC 1446045_PM_at: 1.69
  FC 1447411_PM_at: 2.81
  FC 1459091_PM_at: 2.02
  FC 2010002N04Rik (1423306_PM_at): 1.57
  FC 9030409G11Rik (1434169_PM_at): 1.52
  FC 9130221J17Rik (1443159_PM_at): 2.36
  FC Acss2 (1446542_PM_at): 1.84
  FC Akr1b8 (1448894_PM_at): 8.24
  FC Akr1c19 (1455454_PM_at): 2.33
  FC Areg (1421134_PM_at): 2.71
  FC Blvrb (1451386_PM_at): 1.57
  FC Bmp2 (1423635_PM_at): −1.55
  FC Cbr1 (1460196_PM_at): 1.53
  FC Cbr3 (1427912_PM_at): 55.49
  FC Ces1f (1424266_PM_s_at): 2.71
  FC Ces1g (1449486_PM_at): 3.68
  FC Dnase2a (1430135_PM_at): 1.79
  FC Dppa5a (1416552_PM_at): 2.64
  FC Ereg (1419431_PM_at): 2.00
  FC Ero1l (1419030_PM_at): 1.90
  FC Esd (1441604_PM_at): 1.52
  FC Figf (1438953_PM_at): 1.63
  FC G6pd2 (1422327_PM_s_at): 1.74
  FC Gabarapl1 (1416418_PM_at): 1.52
  FC Gclc (1424296_PM_at): 3.99
  FC Gclc (1455959_PM_s_at): 3.06
  FC Gsr (1421816_PM_at): 2.19
  FC Gss (1441931_PM_x_at): 1.92
  FC Gss (1448273_PM_at): 1.69
  FC Gsta3 (1423436_PM_at): 3.23
  FC Gsta3 (1423437_PM_at): 3.64
  FC Gstm1 (1416416_PM_x_at): 2.38
  FC Gstm1 (1425627_PM_x_at): 2.70
  FC Gstm1 (1448330_PM_at): 2.47
  FC Gstm3 (1427473_PM_at): 2.51
  FC Gstm3 (1427474_PM_s_at): 1.57
  FC Hfe 1422645_PM_at: 1.73
  FC Htatip2 (1451814_PM_a_at): 1.53
  FC LOC100504040 (1457279_PM_at): 2.24
  FC Lpin2 (1452837_PM_at): 1.61
  FC Lrp8 (1440882_PM_at): 2.23
  FC Mafg (1434054_PM_at): 1.95
  FC Mafg (1448916_PM_at): 2.01
  FC Nqo1 (1423627_PM_at): 2.16
  FC Osgin1 (1424022_PM_at): 1.98
  FC Prr5l (1452834_PM_at): −1.64
  FC Prss8 (1418320_PM_at): 2.41
  FC Setd4 (1425239_PM_at): 2.11
  FC Setd4 (1435405_PM_at): 1.93
  FC Setd4 (1460373_PM_a_at): 1.87
  FC Slc2a1 (1426599_PM_a_at): 1.53
  FC Slc2a1 (1426600_PM_at): 1.68
  FC Slc40a1 (1417061_PM_at): 2.73
  FC Slc48a1 1450410_PM_a_at: 1.62
  FC Slfn2 (1450165_PM_at): −1.82
  FC Srxn1 (1425351_PM_at): 1.77
  FC St3gal6 (1449078_PM_at): 1.52
  FC Tkt (1436605_PM_at): 1.73
  FC Tnfaip3 1433699_PM_at: −1.67
  FC Tox3 (1436600_PM_at): 1.81
  FC Ugt2b5 (1419622_PM_at): 3.13
  FC Ugt2b35 (1439624_PM_at): 3.08
100MMF-vs-Veh, 7 h
  FC 1110020G09Rik (1437287_PM_at): 1.74
  FC 1447411_PM_at: 1.97
  FC 9130221J17Rik (1443159_PM_at): 1.61
  FC 9430069I07Rik (1431672_PM_at): 3.66
  FC Abcc2 (1450109_PM_s_at): 1.51
  FC Abcc3 (1428988_PM_at): 2.26
  FC Acsm5 (1437662_PM_at): 1.71
  FC Acss2 (1446542_PM_at): 2.06
  FC Akr1b8 (1448894_PM_at): 14.16
  FC Akr1c12 (1450455_PM_s_at): 1.58
  FC Akr1c13 (1418672_PM_at): 1.86
  FC Akr1c19 (1455454_PM_at): 2.39
  FC Aldh1a7 (1418601_PM_at): 1.86
  FC Areg (1421134_PM_at): 2.93
  FC Asns 1451095_PM_at: 1.60
  FC Blvrb (1451386_PM_at): 1.55
  FC Capn13 (1437960_PM_at): −1.75
  FC Cbr1 (1460196_PM_at): 1.83
  FC Cbr3 (1427912_PM_at): 40.98
  FC Ces1e (1419510_PM_at): 2.44
  FC Ces1f (1424266_PM_s_at): 5.19
  FC Ces1g (1449486_PM_at): 9.24
  FC Ddc (1426215_PM_at): 2.03
  FC Dppa5a (1416552_PM_at): 1.88
  FC Enkur (1428960_PM_at): −1.56
  FC Entpd5 (1451765_PM_a_at): 1.60
  FC Esd (1438488_PM_at): 2.15
  FC Fam162a (1451385_PM_at): 1.67
  FC G6pd2 (1422327_PM_s_at): 2.06
  FC G6pdx (1448354_PM_at): 1.76
  FC Gclc (1424296_PM_at): 2.87
  FC Gclc (1455959_PM_s_at): 2.48
  FC Gm14446 (1435529_PM_at): −1.65
  FC Gpx2 (1449279_PM_at): 1.53
  FC Gsr (1421816_PM_at): 3.13
  FC Gss (1441931_PM_x_at): 2.20
  FC Gss (1448273_PM_at): 2.25
  FC Gsta2 (1421040_PM_a_at): 9.84
  FC Gsta2 (1421041_PM_s_at): 1.90
  FC Gsta3 (1423436_PM_at): 5.71
  FC Gsta3 (1423437_PM_at): 5.75
  FC Gstm1 (1416416_PM_x_at): 3.95
  FC Gstm1 (1425627_PM_x_at): 4.80
  FC Gstm1 (1448330_PM_at): 4.23
  FC Gstm2 (1416411_PM_at): 2.09
  FC Gstm3 (1427473_PM_at): 3.46
  FC Gstm3 (1427474_PM_s_at): 1.99
  FC Gstm4 (1424835_PM_at): 5.75
  FC Gstm6 (1422072_PM_a_at): 2.23
  FC Gstm7 (1419072_PM_at): 1.97
  FC Htatip2 (1451814_PM_a_at): 1.68
  FC Ifit1 (1450783_PM_at): −1.95
  FC Matn2 (1419442_PM_at): 1.59
  FC Matn2 (1455978_PM_a_at): 2.21
  FC Me1 (1416632_PM_at): 2.01
  FC Nqo1 (1423627_PM_at): 2.63
  FC Pgd 1423706_PM_a_at: 1.55
  FC Pgm2 (1451149_PM_at): 1.54
  FC Pir (1429001_PM_at): 5.12
  FC Prss8 (1418320_PM_at): 1.75
  FC Rsad2 (1421009_PM_at): −1.84
  FC Rsad2 (1436058_PM_at): −1.81
  FC Rtp4 (1418580_PM_at): −1.61
  FC Setd4 (1425239_PM_at): 2.27
  FC Setd4 (1435405_PM_at): 1.76
  FC Setd4 (1460373_PM_a_at): 1.77
  FC Slc5a4b (1422757_PM_at): 1.79
  FC Slc35e3 (1428805_PM_at): 1.67
  FC Txnrd1 (1424486_PM_a_at): 2.07
  FC Txnrd1 (1424487_PM_x_at): 1.93
  FC Ugt2b5 (1419622_PM_at): 4.50
  FC Ugt2b35 (1439624_PM_at): 3.31
  FC Ugt2b36 (1455595_PM_at): 2.50
100MMF-vs-Veh, 12 h
  FC Acss2 (1446542_PM_at): 1.52
